Results taken from US20080275032A1, “Pyridazinone compounds” (priority 2006, published 2008).
pIC50: −log10 of the molar value.

Biological target: HCV NS5B polymerase (Hepatitis C virus genotype 1b, UniProt P26663)
Assay: biochemical
Conditions: HCV polymerase inhibition, 50 nM enzyme, 2 h at room temperature, FlashPlate [α-33P]GTP incorporation
Protocol: NS5B Polymerase Inhibition Assay (IC50)
Compounds were tested for HCV polymerase inhibition. Assays were performed in a 96-well streptavidin-coated FlashPlate using 50 nM enzyme, 0.5 μCi of [α-^33P]GTP, 0.6 μM GTP, and 50 nM 5′biotinylated oligo (rG13)/poly rC in 20 mM Tris-HCl, pH 7.5, 5 mM MgCl2, 20 mM NaCl, 5 mM dithiothreitol, and 0.1 g/L BSA. The reaction was stopped by aspiration after 2 h at room temperature and the plate was washed several times. After washing, incorporated radioactivity was counted using a Microbeta scintillation counter.

HCV NS5B polymerase, sequence (P26663 2420-3010): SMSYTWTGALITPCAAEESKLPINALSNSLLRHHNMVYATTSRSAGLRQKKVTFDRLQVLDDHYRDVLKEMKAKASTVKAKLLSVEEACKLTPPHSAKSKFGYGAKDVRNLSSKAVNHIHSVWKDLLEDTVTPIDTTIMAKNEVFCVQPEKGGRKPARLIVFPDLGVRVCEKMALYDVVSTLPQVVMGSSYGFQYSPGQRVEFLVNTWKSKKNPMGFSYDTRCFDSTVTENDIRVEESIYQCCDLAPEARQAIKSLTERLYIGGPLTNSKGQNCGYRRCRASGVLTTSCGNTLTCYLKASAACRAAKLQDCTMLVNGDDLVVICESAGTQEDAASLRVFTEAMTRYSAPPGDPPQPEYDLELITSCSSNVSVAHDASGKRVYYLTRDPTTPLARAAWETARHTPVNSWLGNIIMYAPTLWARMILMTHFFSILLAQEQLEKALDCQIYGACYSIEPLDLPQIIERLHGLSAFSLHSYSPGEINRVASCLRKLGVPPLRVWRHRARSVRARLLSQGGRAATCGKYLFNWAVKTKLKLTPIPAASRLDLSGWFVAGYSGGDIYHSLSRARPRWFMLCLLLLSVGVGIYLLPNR

pIC50	Compound
> 7.00	CC(C)CCn1nc(-c2cc[nH]c2)c(O)c(C2=Nc3ccc(NS(C)(=O)=O)cc3S(=O)(=O)N2)c1=O [N-{3-[5-Hydroxy-2-(3-methyl-butyl)-3-oxo-6-(1H-pyrrol-3-yl)-2,3-dihydro-pyridazin-4-yl]-1,1-dioxo-1,2-dihydro-1λ^6-benzo[1,2,4]thiadiazin-7-yl}-methanesulfonamide]
6.00 to 7.00	C/C(=C\c1nn(CCC(C)C)c(=O)c(C2=NS(=O)(=O)c3cc(NS(C)(=O)=O)ccc3N2)c1O)C(F)(F)F [N-{3-[5-Hydroxy-2-(3-methyl-butyl)-3-oxo-6-(3,3,3-trifluoro-2-methyl-propenyl)-2,3-dihydro-pyridazin-4-yl]-1,1-dioxo-1,2-dihydro-1λ^6-benzo[1,2,4]thiadiazin-7-yl}-methanesulfonamide]
5.00 to 6.00	CC(C)CCn1nc(-c2ccccc2)c(O)c(C2=Nc3ccc(N(C)S(C)(=O)=O)cc3S(=O)(=O)N2)c1=O [N-{3-[5-Hydroxy-2-(3-methyl-butyl)-3-oxo-6-phenyl-2,3-dihydro-pyridazin-4-yl]-1,1-dioxo-1,2-dihydro-1λ^6-benzo[1,2,4]thiadiazin-7-yl}-N-methyl-methanesulfonamide]
> 7.00	CC(C)CCn1nc(-c2ccccc2)c(O)c(C2=Nc3ccc(NS(C)(=O)=O)cc3S(=O)(=O)N2)c1=O [N-{3-[5-Hydroxy-2-(3-methyl-butyl)-3-oxo-6-phenyl-2,3-dihydro-pyridazin-4-yl]-1,1-dioxo-1,2-dihydro-1λ^6-benzo[1,2,4]thiadiazin-7-yl}-methanesulfonamide]
> 7.00	CC(C)CCn1nc(-c2cncs2)c(O)c(C2=NS(=O)(=O)c3cc(NS(C)(=O)=O)ccc3N2)c1=O [N-{3-[5-Hydroxy-2-(3-methyl-butyl)-3-oxo-6-thiazol-5-yl-2,3-dihydro-pyridazin-4-yl]-1,1-dioxo-1,2-dihydro-1λ^6-benzo[1,2,4]thiadiazin-7-yl}-methanesulfonamide]
5.00 to 6.00	CC(C)CCn1nc(-c2cccs2)c(O)c(C2=Nc3ccc(N(C(C)C)S(C)(=O)=O)cc3S(=O)(=O)N2)c1=O [N-{3-[5-Hydroxy-2-(3-methyl-butyl)-3-oxo-6-thiophen-2-yl-2,3-dihydro-pyridazin-4-yl]-1,1-dioxo-1,2-dihydro-1λ^6-benzo[1,2,4]thiadiazin-7-yl}-N-isopropyl-methanesulfonamide]
> 7.00	CCC(C)CCn1nc(-c2cccs2)c(O)c(C2=NS(=O)(=O)c3cc(NS(C)(=O)=O)ccc3N2)c1=O (stereo not drawn) [N-{3-[5-Hydroxy-2-(3-methyl-pentyl)-3-oxo-6-thiophen-2-yl-2,3-dihydro-pyridazin-4-yl]-1,1-dioxo-1,2-dihydro-1λ^6-benzo[1,2,4]thiadiazin-7-yl}-methanesulfonamide]
> 7.00	CS(=O)(=O)Nc1ccc2c(c1)S(=O)(=O)N=C(c1c(O)c(-c3cccs3)nn(CC3(C(F)(F)F)CC3)c1=O)N2 [N-{3-[5-Hydroxy-3-oxo-6-thiophen-2-yl-2-(1-trifluoromethyl-cyclopropylmethyl)-2,3-dihydro-pyridazin-4-yl]-1,1-dioxo-1,2-dihydro-1λ^6-benzo[1,2,4]thiadiazin-7-yl}-methanesulfonamide]
6.00 to 7.00	CC(C)CCn1nc(CC2CCC2)c(O)c(C2=NS(=O)(=O)c3cc(NS(C)(=O)=O)ccc3N2)c1=O [N-{3-[6-Cyclobutylmethyl-5-hydroxy-2-(3-methyl-butyl)-3-oxo-2,3-dihydro-pyridazin-4-yl]-1,1-dioxo-1,2-dihydro-1λ^6-bnezo[1,2,4]thiadiazin-7-yl}-methanesulfonamide]
> 7.00	CC(C)CCn1nc(C2=CCCC2)c(O)c(C2=NS(=O)(=O)c3cc(NS(C)(=O)=O)ccc3N2)c1=O [N-{3-[6-Cyclopent-1-enyl-5-hydroxy-2-(3-methyl-butyl)-3-oxo-2,3-dihydro-pyridazin-4-yl]-1,1-dioxo-1,2-dihydro-1λ^6-benzo[1,2,4]thiadiazin-7-yl}-methanesulfonamide]
> 7.00	CC(C)CCn1nc(-c2cncs2)c(O)c(C2=Nc3ccc(NS(=O)(=O)C(C)C)cc3S(=O)(=O)N2)c1=O [Propane-2-sulfonic acid {3-[5-hydroxy-2-(3-methyl-butyl)-3-oxo-6-thiazol-5-yl-2,3-dihydro-pyridazin-4-yl]-1,1-dioxo-1,2-dihydro-1λ^6-benzo[1,2,4]thiadiazin-7-yl}-amide]
> 7.00	CC(C)CCn1nc(-c2cccs2)c(O)c(C2=NS(=O)(=O)c3cc(NS(=O)(=O)C(C)C)ccc3N2)c1=O [Propane-2-sulfonic acid {3-[5-hydroxy-2-(3-methyl-butyl)-3-oxo-6-thiophen-2-yl-2,3-dihydro-pyridazin-4-yl]-1,1-dioxo-1,2-dihydro-1λ^6-benzo[1,2,4]thiadiazin-7-yl}-amide]

The remaining lines, values behind:

Compound	pIC50
CC(C)CCn1nc(-c2cccs2)c(O)c(C2=NS(=O)(=O)c3cc(N(C)S(C)(=O)=O)ccc3N2C)c1=O [N-{3-[5-Hydroxy-2-(3-methyl-butyl)-3-oxo-6-thiophen-2-yl-2,3-dihydro-pyridazin-4-yl]-4-methyl-1,1-dioxo-1,4-dihydro-1λ^6-benzo[1,2,4]thiadiazin-7-yl}-N-methyl-methanesulfonamide]	5.00 to 6.00
CC(C)CCn1nc(-c2ccn(C)c2)c(O)c(C2=Nc3ccc(NS(C)(=O)=O)cc3S(=O)(=O)N2)c1=O [N-{3-[5-Hydroxy-2-(3-methyl-butyl)-6-(1-methyl-1H-pyrrol-3-yl)-3-oxo-2,3-dihydro-pyridazin-4-yl]-1,1-dioxo-1,2-dihydro-1λ^6-benzo[1,2,4]thiadiazin-7-yl}-methanesulfonamide]	> 7.00
CC(C)=Cc1nn(CCC(C)C)c(=O)c(C2=NS(=O)(=O)c3cc(NS(C)(=O)=O)ccc3N2)c1O [N-{3-[5-Hydroxy-2-(3-methyl-butyl)-6-(2-methyl-propenyl)-3-oxo-2,3-dihydro-pyridazin-4-yl]-1,1-dioxo-1,2-dihydro-1λ^6-benzo[1,2,4]thiadiazin-7-yl}-methanesulfonamide]	> 7.00
CN(c1ccc2c(c1)S(=O)(=O)NC(c1c(O)c(-c3cccs3)nn(CC3(C(F)(F)F)CC3)c1=O)=N2)S(C)(=O)=O [N-{3-[5-Hydroxy-3-oxo-6-thiophen-2-yl-2-(1-trifluoromethyl-cyclopropylmethyl)-2,3-dihydro-pyridazin-4-yl]-1,1-dioxo-1,2-dihydro-1λ^6-benzo[1,2,4]thiadiazin-7-yl}-N-methyl-methanesulfonamide]	> 7.00
CCC(C)(C)c1nn(CCC(C)C)c(=O)c(C2=NS(=O)(=O)c3cc(NS(C)(=O)=O)ccc3N2)c1O [N-{3-[6-(1,1-Dimethyl-propyl)-5-hydroxy-2-(3-methyl-butyl)-3-oxo-2,3-dihydro-pyridazin-4-yl]-1,1-dioxo-1,2-dihydro-1λ^6-benzo[1,2,4]thiadiazin-7-yl}-methanesulfonamide]	6.00 to 7.00
CC(C)CCn1nc(CCC2OCCCO2)c(O)c(C2=Nc3ccc(NS(C)(=O)=O)cc3S(=O)(=O)N2)c1=O [N-{3-[6-(2-[1,3]Dioxan-2-yl-ethyl)-5-hydroxy-2-(3-methyl-butyl)-3-oxo-2,3-dihydro-pyridazin-4-yl]-1,1-dioxo-1,2-dihydro-1λ^6-benzo[1,2,4]thiadiazin-7-yl}-methanesulfonamide]	6.00 to 7.00
CC(C)CCn1nc(CC2=CCCC2)c(O)c(C2=NS(=O)(=O)c3cc(NS(C)(=O)=O)ccc3N2)c1=O [N-{3-[6-Cyclopent-1-enylmethyl-5-hydroxy-2-(3-methyl-butyl)-3-oxo-2,3-dihydro-pyridazin-4-yl]-1,1-dioxo-1,2-dihydro-1λ^6-benzo[1,2,4]thiadiazin-7-yl}-methanesulfonamide]	6.00 to 7.00
CC(C)(C)c1nn(Cc2ccc(F)c(Cl)c2)c(=O)c(C2=Nc3ccc(NS(C)(=O)=O)cc3S(=O)(=O)N2)c1O [N-{3-[6-tert-Butyl-2-(3-chloro-4-fluoro-benzyl)-5-hydroxy-3-oxo-2,3-dihydro-pyridazin-4-yl]-1,1-dioxo-1,2-dihydro-1λ^6-benzo[1,2,4]thiadiazin-7-yl}-methanesulfonamide]	6.00 to 7.00
CCCS(=O)(=O)Nc1ccc2c(c1)S(=O)(=O)NC(c1c(O)c(-c3cncs3)nn(CCC(C)C)c1=O)=N2 [Propane-1-sulfonic acid {3-[5-hydroxy-2-(3-methyl-butyl)-3-oxo-6-thiazol-5-yl-2,3-dihydro-pyridazin-4-yl]-1,1-dioxo-1,2-dihydro-1λ^6-benzo[1,2,4]thiadiazin-7-yl}-amide]	> 7.00
CCCS(=O)(=O)Nc1ccc2c(c1)S(=O)(=O)N=C(c1c(O)c(-c3cccs3)nn(CCC(C)C)c1=O)N2 [Propane-1-sulfonic acid {3-[5-hydroxy-2-(3-methyl-butyl)-3-oxo-6-thiophen-2-yl-2,3-dihydro-pyridazin-4-yl]-1,1-dioxo-1,2-dihydro-1λ^6-benzo[1,2,4]thiadiazin-7-yl}-amide]	> 7.00
CC(C)S(=O)(=O)Nc1ccc2c(c1)S(=O)(=O)NC(c1c(O)c(-c3cccs3)nn(CCC3CC3)c1=O)=N2 [Propane-2-sulfonic acid {3-[2-(2-cyclopropyl-ethyl)-5-hydroxy-3-oxo-6-thiophen-2-yl-2,3-dihydro-pyridazin-4-yl]-1,1-dioxo-1,2-dihydro-1λ^6-benzo[1,2,4]thiadiazin-7-yl}-amide]	> 7.00
CC(C)CCn1nc(-c2cccs2)c(O)c(C2=Nc3ccc(NC(=O)OC(C)C)cc3S(=O)(=O)N2)c1=O [{3-[5-Hydroxy-2-(3-methyl-butyl)-3-oxo-6-thiophen-2-yl-2,3-dihydro-pyridazin-4-yl]-1,1-dioxo-1,2-dihydro-1λ^6-benzo[1,2,4]thiadiazin-7-yl}-carbamic acid isopropyl ester]	5.00 to 6.00
